These results are taken from patent publication US20030040510A1, “Selective estrogen receptor modulators in combination with estrogens” (Endorecherche, Inc., priority 2000, published 2003).

A short description of series [1]: Concentration of EM-652 in the circulation, 6-month rat study. The series is classed as in vivo. As to conditions: intact rats, EM-652 0.5 mg/kg daily, 6-month study.
Series [2] relates to breast and endometrial tissues. In words: Antiestrogens tested for SERM function and estrogenic activity in breast and endometrium.
The subject of series [3] is bone metabolism in the rat. In words: Biochemical parameters of bone metabolism (urine, serum) after DHEA and/or EM-800. The series is classed as in vivo. As to conditions: DHEA 10 mg, EM-800 75 μg. The text has this: Data are expressed as the means±SEM.**: P<0.01 experimental versus respective control.
It is particularly important to indicate that the combination of DHEA and EM-800 exerted unexpected beneficial effects on important biochemical parameters of bone metabolism. […] Moreover, no effect of DHEA could be detected on daily urinary calcium or phosphorus excretion (Luo et al., Endocrinology 138: 4435-4444, 1997). EM-800, decreased the urinary hydroxyproline/creatinine ratio by 48% while, similarly to DHEA, no effect of EM-800 was seen on urinary calcium or phosphorus excretion. EM-800, moreover, had no effect on serum alkaline phosphatase activity, a marker of bone formation while DHEA increased the value of the parameter by about 75% (Luo et al., Endocrinology 138: 4435-4444, 1997).

The test system of series [4] is bone metabolism in the rat. To be noted: cited from earlier work.
The subject of series [5] is ovariectomized rats. Put plainly: 5-diol alone or with Flutamide and/or EM-800 for 12 months in ovariectomized rats (bone mass, serum markers).
Series [6] relates to ZR-75-1 breast tumor xenografts. In words: Growth of human ZR-75-1 breast tumor xenografts in OVX nude mice supplemented with estrone (DHEA, EM-800; Example 1). To be noted: OVX + E1; for Inhibition of E1-stimulated ZR-75-1 tumor size / Average tumor weight: 9.5 months. For orientation: A xenograft is tissue or cells of one species grown in another, often human tumour cells in immunodeficient mice.

Series [7] concerns rat mammary gland and endometrium. In words: 12-week EM-800 treatment of intact rats: serum 17β-estradiol, mammary gland, endometrium. As to conditions: 12 weeks. The format is in vivo. As to the method: B. Animal treated with EM-800 (0.5 mg/kg, b w per day) for 12 weeks. […] Insert.
B. Animal treated with EM-800 (0.5 mg/kg, b w per day) during 12 weeks.

Series [8] deals with uterus and vagina of ovariectomized nude mice. In words: Uterine, vaginal and body weight in the xenograft-bearing OVX nude mice (Example 1). As to conditions: OVX + E1.
For series [9], the system named is uterus and vagina of ovariectomized mice. Put plainly: Uterine and vaginal weight in ovariectomized mice treated or not with estrone (9 days oral). As to conditions: for Inhibition of estrone-stimulated uterine weight / Inhibition of estrone-stimulated vaginal weight: 9 days, OVX mice + E1. The format is in vivo, BALB/c mice. How it is done:
(St-Constant, Quebec, Canada) and housed 5 per cage in a temperature (23±1° C.)—and light (12 h light/day, lights on at 7:15)—controlled environment. The mice were fed rodent chow and tap water ad libitum. […] Ten mice were kept intact as controls. […] Compounds were dissolved in ethanol (4% final concentration) and administered in 0.4% methylcellulose. Mice in the intact and OVX control groups received the vehicle alone (4% ETOH-0.4% methylcellulose) during the 9-day period. The animals were killed by exsanguination at the abdominal aorta on the 11th morning following ovariectomy.

The subject of series [10] is ovariectomized female rats. In words: Prevention of bone loss, body fat, serum cholesterol and ALP, 26-week treatment of OVX rats (Example 5A, experiment 2). The series is classed as in vivo, Sprague-Dawley rats. As to conditions: 26 weeks. How it is done:
Ten to twelve week-old female Sprague-Dawley rats (Crl:CD(SD)Br) (Charles River Laboratory, St-Constant, Canada) weighing approximately 220-270 g at start of treatment were used. The animals were acclimatized to the environmental conditions (temperature: 22±3° C.; humidity: 50±20%; 12-h light-12-h dark cycles, lights on at 07:15 h) for at least 1 week before starting the experiments. The animals were housed individually and were allowed free access to tap water and a pelleted certified rodent feed (Lab Diet 5002, Ralston Purina, St-Louis, Mo.). Experiments were conducted in an animal facility approved by the Canadian Council on Animal Care (CCAC) and the Association for Assessment and Accreditation of Laboratory Animal Care (AAALAC) in accordance with the CCAC Guide for Care and Use of Experimental Animals.
On day 1 of the study, the animals of the appropriate groups were bilaterally OVX under isoflurane anesthesia. Tested compounds were administered as suspension in 0.4% methylcellulose by oral gavage. Treatments were initiated on day 2 of the study and were performed once daily during 26 weeks. In both experiments, animals not receiving a test article were treated with the appropriate vehicle alone during the same period.
After 3 months (experiment 1) or 26 weeks (experiment 2) of treatment, individual rats under Isoflurane anesthesia had their whole body skeleton and lumbar spine scanned using dual energy x-ray absorptiometry (DEXA; QDR 4500A, Hologic, Waltham, Mass.) and a Regional High Resolution Scan software. The bone mineral density (BMD) of the lumbar spine (vertebrae L2 to L4) and the total body composition (fat percentage) were determined.
After 3 months (experiment 1) or 26 weeks (experiment 2) of treatment, blood samples were collected at the jugular vein from overnight fasted animals (under Isoflurane anesthesia). Samples were processed for serum preparation and frozen at −80° C. until assay. Serum cholesterol levels and alkaline phospatase activity (ALP) were determined using the Boehringer Mannheim Diagnostic Hitachi 911 Analyzer (Boehringer Mannheim Diagnostic Laboratory Systems).

In series [11] the test system is MCF-7 cells. Put plainly: Proliferation of human breast cancer MCF-7 cells (DNA content). To be noted: MCF-7, Experiment 1. The format is cell-based. As to the method:
The MCF-7 human breast adenocarcinoma cell line was derived from the pleural effusion of a patient. MCF-7 cells were used between passages 148 and 165 and subcultured weekly
Cells in their late logarithmic growth phase were harvested with 0.1% pancreatin (Sigma) and resuspended in the appropriate medium containing 50 ng bovine insulin/ml and 5% (v/v) FBS treated twice with dextran-coated charcoal to remove endogenous steroids. Cells were plated in 24-well Falcon plastic culture plates (2 cm^2/well) at the indicated density and allowed to adhere to the surface of the plates for 72 h. Thereafter, medium was replaced with fresh medium containing the indicated concentrations of compounds diluted from 1000×stock solutions in 99% redistilled ethanol in the presence or absence of E2. Control cells received only the ethanolic vehicle (0.1% EtOH,v/v). Cells were incubated for the specified time intervals with medium changes at 2-or 3-day intervals. Cell number was determined by measurement of DNA content.
Dose-response curves as well IC50 values were calculated using a weighted iterative nonlinear least-squares regression. All results are expressed as means±SEM.

Setting [12] is: EM-800 0.5 mg/kg per day, 0.5 mg/kg/day.
Where [13] appears, read: OVX + ERA-923 3 μg (no estrone).
Where [14] appears, read: OVX + ERA-923 30 μg (no estrone).
Where [15] appears, read: alone, absence of estrone, both doses used.
The mark [16] stands for this setting: OVX rats, Premarin 0.25 mg/kg, SERMs 2.5 mg/kg oral.

pIC50: −log10 of the molar value. Several values for one entry are separate records, joined by “and”; a condition that tells them apart may be missing. Identical values can stand only once. Entries after “also recorded” stand apart in the source; their conditions may differ. Marks after values point to notes of the source that are not given here.

In turn, `CC1=C(c2ccc(O)cc2)[C@H](c2ccc(OCCN3CCCCC3)cc2)Oc2cc(O)ccc21` [EM-652] showed a concentration at 6 months in series [1] of 0.4 ng/mL.
Regarding `CC1=C(c2ccc(OC(=O)C(C)(C)C)cc2)[C@H](c2ccc(OCCN3CCCCC3)cc2)Oc2cc(OC(=O)C(C)(C)C)ccc21` [EM-800, (+)-7-pivaloyloxy-3-(4′-pivaloyloxyphenyl)-4-methyl-2-(4″-(2′″-piperidinoethoxy)phenyl)-2H-benzopyran], the “Function as SERM” value in [2] is on record as “found to function as SERMs”. The “Estrogenic activity in breast and endometrial tissues” value in series [2] (physiological or pharmacological concentrations) is listed as “do not have any estrogenic activity”. Moreover, in series [3], the “Serum tALP” value is 114.11 ± 11.26 IU/L, the “Urine HP/Cr” value is 6.81 ± 0.84** μmol/mmol, the Urine calcium is given as 17.44 ± 4.5 μmol/24h/100g and the Urine phosphorus turned out to be 102.03 ± 25.13 μmol/24h/100g. In series [4], the “Decrease of urinary hydroxyproline/creatinine ratio” value is listed as 48%, the “Effect on daily urinary calcium or phosphorus excretion” value is “no effect” and the “Increase of serum alkaline phosphatase activity” value is listed as “had no effect”. In series [5] (EM-800 100 μg s.c. daily added to 5-diol), the “Additional stimulation of femoral BMD compared to 5-diol alone” value is 28.4%. Moreover, the “Effect on 5-diol action on bone volume, trabecular number and trabecular separation (histomorphometry)” value in series [5] (added to 5-diol, proximal tibia) is given as “further enhanced”. In addition, the “Decrease of serum cholesterol” value in series [5] (addition of EM-800 to 5-diol) was found to be 62%. Besides, the “Inhibition of E1-stimulated ZR-75-1 tumor size” value in series [6] (EM-800 15 μg oral daily) is 88% and 87.5%. Also, in series [6] (EM-800 50 μg oral daily), the “Inhibition of E1-stimulated ZR-75-1 tumor size” value is 93% and 93.5%. The “Inhibition of E1-stimulated ZR-75-1 tumor size” value in [6] (EM-800 100 μg oral daily) came out at 94%. Further, in [6] (EM-800 15 μg), the “Category of response: Partial” value was 1 (5.9) Number and (%); the “Category of response: Stable” value is 5 (29.4) Number and (%); the Average tumor weight is 0.08 ± 0.03 g. Further, in series [6] (EM-800 50 μg), the “Category of response: Complete” value is 4 (25.0) Number and (%); the “Category of response: Partial” value is 3 (18.8) Number and (%); the “Category of response: Progression” value is 4 (25.0) Number and (%); the “Category of response: Stable” value was 5 (31.2) Number and (%). Also, the Average tumor weight in [6] (EM-800 50 μg) was 0.03 ± 0.01 g. Further, in series [6] (EM-800 100 μg), the “Category of response: Complete” value was 8 (50.0) Number and (%); the “Category of response: Partial” value is 0 (0) Number and (%); the “Category of response: Progression” value was 5 (31.2) Number and (%); the “Category of response: Stable” value is 3 (18.8) Number and (%). Further, the Average tumor weight in series [6] (EM-800 100 μg) was 0.04 ± 0.03 g. Also, the “Elevation of circulating 17β-estradiol vs intact animals” value in [7] (EM-800 0.5 mg/kg orally daily) worked out at 50%. Besides, in series [7] (setting [12]), the Endometrium histology result is “luminal epithelium is markedly reduced in height; also recorded: marked atrophy of the endometrium” and the Mammary gland histology result is reported as “lobules (L) are reduced in size; also recorded: marked atrophy of the mammary gland”. Further, in series [7] (intact rats, EM-800 0.5 mg/kg orally daily), the “Circulating levels of 17β-estradiol” value worked out at 143.5 ± 7.8 pg/mL. Moreover, in series [8] (EM-800 15 μg), the Uterine weight was found to be 49 ± 3 mg and the Vaginal weight was 23 ± 1 mg. In series [8] (EM-800 50 μg), the Uterine weight was 36 ± 2 mg and the Vaginal weight was 15 ± 1 mg. For the same compound, in [8] (EM-800 100 μg), the Uterine weight was determined as 32 ± 1 mg and the Vaginal weight was 11 ± 1 mg.
For the compound `Cc1c(-c2ccc(O)cc2)n(Cc2ccc(OCCN3CCCCC3)cc2)c2ccc(O)cc12` [ERA-923], the “Inhibition of estrone-stimulated uterine weight” value amounted to 12% in series [9] (1 μg daily oral), 47% in [9] (3 μg daily oral), 74% in series [9] (10 μg daily oral) and 94% in series [9] (30 μg daily oral). The “Inhibition of estrone-stimulated vaginal weight” value is 16% in [9] (3 μg daily oral), 56% in series [9] (10 μg daily oral) and 93% in series [9] (30 μg daily oral). Moreover, the Uterine weight was 105.5 ± 6.1 mg in series [9] (OVX + E1 + ERA-923 1 μg); 69.7 ± 4.4 mg in series [9] (OVX + E1 + ERA-923 3 μg); 42.1 ± 2.7 mg in series [9] (OVX + E1 + ERA-923 10 μg); 21.7 ± 1.7 mg in series [9] (OVX + E1 + ERA-923 30 μg); 18.3 ± 1.2 mg in series [9] (setting [13]); 17.7 ± 1.6 mg in series [9] (setting [14]). For the same compound, the Vaginal weight in series [9] (OVX + E1 + ERA-923 1 μg) is 54.2 ± 3.0 mg; in series [9] (OVX + E1 + ERA-923 3 μg), 47.2 ± 1.6 mg; in series [9] (OVX + E1 + ERA-923 10 μg), 31.1 ± 2.3 mg; in [9] (OVX + E1 + ERA-923 30 μg), 16.7 ± 1.8 mg; in [9] (setting [13]) it was 14.1 ± 1.2 mg; in series [9] (setting [14]) it was 15.3 ± 2.0 mg. Also, the “Stimulatory effect on uterine weight” value in series [9] (setting [15]) is given as “no significant stimulatory effect”. Also, the “Stimulatory effect on vaginal weight” value in series [9] (setting [15]) is recorded as “no significant stimulatory effect”. In addition, the “Reversal of the fat increase induced by estrogen deficiency” value in [10] (OVX rats) is reported as 75%. The “Serum ALP” value in [10] (OVX rats) amounted to 85 ± 6 IU. In [10] (OVX rats), this compound returned a Serum cholesterol of 1.15 ± 0.05 mmol/L. Besides, the Total fat in series [10] (OVX rats) is listed as 28.0 ± 1.8 %. The “Lumbar spine BMD” value in series [10] (setting [16]) came to 0.2252 ± 0.0058 g/cm^2. The “Lumbar spine, Prevention of Bone Loss” value in [10] (setting [16]) came to 49%. Moreover, the “OVX-induced increase on serum cholesterol levels” value in [10] (alone or in combination with Premarin) is given as “completely prevented”. In series [11] (Homo sapiens, MCF7, read-out: Inhibition of 1nM E2 stimulation of DNA by tested compounds IC50), the pIC50 was 8.43. In addition, the “Maximal stimulation of DNA by tested compounds” value in [11] was “N.S”.

The term pIC50 denotes the negative decadic logarithm of the IC50, by convention in mol/L.
